From US5958935A, “Substituted 2-anilinopyrimidines useful as protein kinase inhibitors” (Celltech Therapeutics Limited, priority 1995, dated 1999)

Legend:
Format in all cases: biochemical
[1] = target: T1, ZAP-70 (Homo sapiens, UniProt P43403); test: ZAP-70 kinase assay; conditions: polyGlu-Tyr 17 μg/ml
T1 sequence (P43403 1-619): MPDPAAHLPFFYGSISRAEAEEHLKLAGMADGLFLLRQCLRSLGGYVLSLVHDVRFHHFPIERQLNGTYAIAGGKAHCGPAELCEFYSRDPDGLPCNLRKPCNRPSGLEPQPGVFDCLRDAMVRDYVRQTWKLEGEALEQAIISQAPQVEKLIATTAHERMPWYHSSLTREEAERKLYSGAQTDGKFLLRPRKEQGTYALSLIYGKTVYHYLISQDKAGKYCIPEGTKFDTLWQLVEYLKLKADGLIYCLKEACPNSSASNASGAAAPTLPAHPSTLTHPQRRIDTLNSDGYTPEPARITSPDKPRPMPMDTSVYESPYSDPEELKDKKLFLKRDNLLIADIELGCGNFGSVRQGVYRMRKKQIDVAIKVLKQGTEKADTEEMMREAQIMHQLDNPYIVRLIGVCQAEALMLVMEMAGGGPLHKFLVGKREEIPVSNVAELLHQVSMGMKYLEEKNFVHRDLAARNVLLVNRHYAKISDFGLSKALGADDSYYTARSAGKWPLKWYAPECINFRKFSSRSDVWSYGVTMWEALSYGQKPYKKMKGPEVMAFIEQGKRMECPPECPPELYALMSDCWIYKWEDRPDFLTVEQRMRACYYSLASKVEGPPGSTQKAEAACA
Description: (§1) The tyrosine kinase activity of ZAP-70 was determined using a capture assay based on that employed above for p56^lck. The RR-src peptide was replaced with polyGlu-Tyr (Sigma; Poole, UK) at a final concentration of 17 μg/ml. After addition of the stopped reaction to the filtermat, trichloroacetic acid 10% (w/v) was employed as the wash reagent instead of acetic acid and a final wash in absolute ethanol was also performed before scintillation counting. IC50 values for each test inhibitor were determined as described above in the p56^lck assay.

[2] = test system: protein kinase C (PKC); test: Protein kinase C assay; conditions: for activity in the protein kinase C assay: in words
Description: (§2) Inhibitor activity against protein kinase C (PKC) was determined using PKC obtained from Sigma Chemical Company (Poole, UK) and a commercially available assay system (Amersham International plc, Little Chalfont, UK). Briefly, PKC catalyses the transfer of the γ-phosphate (^32 p) of ATP to the threonine group on a peptide specific for PKC. Phosphorylated peptide is bound to phosphocellulose paper, subsequently quantified by scintillation counting and IC50 values determined as before.

[3] = test system: remaining kinases; test: Selectivity over the remaining kinases described (p56^lck, p59^fyn, EGFr, ZAP-70, Csk, protein kinase C assays)
Description: (§3) All assays were performed in 20 mM HEPES pH 7.5 containing 10 mM MgCl2, 10 mM MnCl2, 0.05% Brij, 1 μM ATP (0.5 μCi[γ-^33 P]ATP) and 0.8 mg/ml RR-src. […] After incubation at 30° C. for 15 min, the reaction was terminated by the addition of one-third volume of stop reagent (0.25 mM EDTA and 33 mM ATP in dH2 O). A 15 μl aliquot was removed, spotted onto a P-30 filtermat (Wallac, Milton Keynes, UK), and washed sequentially with 1% acetic acid and dH2 O to remove ATP. The bound ^33 P-RR-src was quantitated by scintillation counting of the filtermat in a Betaplate scintillation counter (Wallac, Milton Keynes, UK) after addition of Meltilex scintillant (Wallac, Milton Keynes, UK). The dpm obtained, being directly proportional to the amount of ^33 P-RR-src produced by p56^lck, were used to determine the IC50 for each compound.
IC50 values for each test inhibitor were determined as described previously in the p56^lck assay.
as §1
as §2, with “PKC.” for “PKC. Phosphorylated peptide is bound to phosphocellulose paper, subsequently quantified by scintillation counting and IC50 values determined as before.”
Phosphorylated peptide is bound to phosphocellulose paper, subsequently quantified by scintillation counting and IC50 values determined as before.

[4] = target: human p56^lck (Homo sapiens, UniProt P06239); test: p56^lck kinase assay; conditions: 1 μM ATP, RR-src, pH 7.5, 30° C., 15 min
Chain of human p56^lck (P06239 whole entry): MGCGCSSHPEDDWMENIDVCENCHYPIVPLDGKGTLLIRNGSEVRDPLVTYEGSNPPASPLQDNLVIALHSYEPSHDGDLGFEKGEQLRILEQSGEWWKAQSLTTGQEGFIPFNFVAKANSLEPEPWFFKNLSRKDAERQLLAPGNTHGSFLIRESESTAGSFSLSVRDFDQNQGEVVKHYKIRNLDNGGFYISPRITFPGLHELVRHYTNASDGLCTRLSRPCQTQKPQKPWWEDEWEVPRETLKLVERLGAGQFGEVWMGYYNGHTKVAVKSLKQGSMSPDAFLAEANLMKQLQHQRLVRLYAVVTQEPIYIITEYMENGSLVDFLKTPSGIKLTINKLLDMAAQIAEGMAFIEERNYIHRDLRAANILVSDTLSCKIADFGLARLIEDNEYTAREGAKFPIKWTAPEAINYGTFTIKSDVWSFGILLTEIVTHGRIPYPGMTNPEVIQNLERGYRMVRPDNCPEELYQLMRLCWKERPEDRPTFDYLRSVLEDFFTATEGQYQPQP
Description: The tyrosine kinase activity of p56^lck was determined using a RR-src peptide (RRLIEDNEYTARG) and [γ-^33 P]ATP as substrates. Quantitation of the ^33 P-phosphorylated peptide formed by the action of p56^lck was achieved using an adaption of the method of Geissler et al (J. Biol. Chem. (1990) 265, 22255-22261).
as §3

[5] = test system: human p59^fyn; test: p59^fyn kinase assay; conditions: in words
Description: Compounds of the invention were assayed for p59^fyn inhibitory activity in a similar manner to the p56^lck assay, using human p59^fyn.

[6] = relative to ZAP-70, remaining = other than ZAP-70 and protein kinase C
[7] = relative to protein kinase C, remaining = other than protein kinase C
[8] = relative to p56^lck, remaining = other than p56^lck and p59^fyn

SMILES	IC50 [1] [nM]	activity in the protein kinase C assay [2]	IC50 values at least 10× greater against the remaining kinases [3, 6]	IC50 [2] [nM]	IC50 values at least 10× greater against the remaining kinases [3, 7]	IC50 [4] [nM]	activity against p59^fyn [5]	IC50 values at least 10× greater against the remaining kinases [3, 8]
COc1cc(Nc2nccc(-c3ccc(NCCN)nc3)n2)cc(OC)c1OC [Example 64, 4-(2-(2-Aminoethylamino)pyridin-5-yl)-N-(3,4,5-trimethoxyphenyl)-2-pyrimidineamine]	124	active	at least 10 ×					
COc1cc(Nc2nccc(-c3cccc(OCCCN)c3)n2)cc(OC)c1OC.Cl.Cl [Example 48, 4-(3-(3-Aminopropoxy)phenyl)-N-(3,4,5-trimethoxyphenyl)-2-pyrimidineamine dihydrochloride]				22	at least 10 ×			
COc1cc(Nc2nccc(-c3ccc(NCCCN)nc3)n2)cc(OC)c1OC [Example 66, 4-(2-(3-Aminopropylamino)pyridin-5-yl)-N-(3,4,5-trimethoxyphenyl)-2-pyrimidineamine]	68	active	at least 10 ×					

Further lines, results first:

IC50 [1] [nM]	activity in the protein kinase C assay [2]	IC50 values at least 10× greater against the remaining kinases [3, 6]	IC50 [2] [nM]	IC50 values at least 10× greater against the remaining kinases [3, 7]	IC50 [4] [nM]	activity against p59^fyn [5]	IC50 values at least 10× greater against the remaining kinases [3, 8]	SMILES
					215	active	at least 10 ×	COc1ccc(Nc2ccnc(Nc3cc(OC)c(OC)c(OC)c3)n2)cc1OC [Example 96, N4-(3,4-Dimethoxyphenyl)-N2-(3,4,5-trimethoxyphenyl)-2,4-pyrimidinediamine]
			92	at least 10 ×				COc1cc(Nc2nccc(-c3ccc(NCCC4CCCN4C)nc3)n2)cc(OC)c1OC (stereo not shown) [Example 81, 4-(2-(2-(1-Methylpyrrolidin-2-yl)ethylamino)pyridin-5-yl)-N-(3,4,5-trimethoxyphenyl)-2-pyrimidineamine]
					40	active	at least 10 ×	CCOC(=O)Cc1ccc(Nc2ccnc(Nc3cc(OC)c(OC)c(OC)c3)n2)cc1 [Example 103, N4-(4-(Ethoxycarbonylmethyl)phenyl)-N2-(3,4,5-trimethoxyphenyl)-2,4-pyrimidinediamine]
